Data: publication PMC5920042, “KH176 Safeguards Mitochondrial Diseased Cells from Redox Stress-Induced Cell Death by Interacting with the Thioredoxin System/Peroxiredoxin Enzyme Machinery” (Scientific Reports, 2018)
“And” between values parts separate entries of the source, which are not always exact repeats. Equal entries are not always repeated. Where two headings read alike, the source gives them in different places. Marks after values point to notes of the source that are not given here. Blank lines part the entries; values can stand above or below the molecule they belong to.

Assays:
P4 cell line [1] = experiment: Cellular ROS assay (DCFH-DA); format: cell-based, human; details: P4 cells, 24 h compound treatment
Procedure: The cells were then treated for 72 h (or shorter as indicated) with culture medium containing semi-logarithmic dilutions of the test compound. Alternatively, 3 × 10^3 cells/well were seeded when cells were treated for 24 h only. At the end of the incubation period, cells were loaded with 40 µM DCFH-DA (#D6883, Sigma-Aldrich). in M199 without phenol red for 30 min. The excess of the dye was washed with ice-cold M199 without phenol red and the cells were lysed with 100 µl/well of ice-cold 0.2% Triton X-100 in M199 without phenol red after 10 min incubation in ice. Cellular debris was spun down by centrifugation at 2600 g, 5 min, +4 °C and 90 µl/well of cell lysate were transferred to a black 96-wells plate and DCF fluorescence was measured on a scanning microplate reader (BMG FLUOstar Omega; Ex. 480 nm, Em. 520 nm).

P4 cell line [2] = experiment: Redox Stress Survival assay (BSO-induced cell death, Calcein AM viability); format: cell-based, human; details: for EC50: P4 cells, 200 µM BSO, 24 h; for Viability of patient cells under BSO: increasing BSO 24 h
Procedure: Cells were seeded at a density of 4 × 10^3 cells/well into 96-wells black plates and incubated for 24 h. To induce redox stress, semi-logarithmic dilutions of buthionine sulphoximine (BSO, #B2515, Sigma Aldrich) up to 100 µM were added to the cells in culture medium and incubated for 24 h. Cell viability was assessed by quantification of cellular conversion of Calcein AM into fluorescent Calcein. Briefly, after having discarded the BSO containing medium, cells were washed once with M199 without phenol red and loaded with 2 µM Calcein AM (#65-0853-39, Affimetrix eBioscience) in M199 without phenol red for 25 min. At the end of the incubation period, the excess of the dye was washed with M199 without phenol red and Calcein fluorescence was measured with a scanning microplate reader (BMG FLUOstar Omega; Ex. 480 nm, Em. 520 nm). For compound screening and target identification measurements cells were treated with 200 µM BSO alone or in co-incubation with semi-logarithmic dilutions of the test compound. Additionally, where indicated, increasing doses of Auranofin (AFN, #BML-EI206-0100, Enzo) or Aurothioglucose (ATG, #A0606, Sigma Aldrich) were co-incubated with BSO and the test compound. In all cases, cell viability was assessed 24 h after the treatment.

P4 cell line [3] = experiment: Radical-Scavenging Capacity assay (CM-H2DCFDA, H2O2 or KO2); format: cell-based, human; details: P4 cells, 100 µM H2O2 or 1 mM KO2 (text: KOH), 3 µM compound
Procedure: Cells were seeded at a density of 4 × 10^3 cells/well into 96-wells black plates. After 24 h the cells were loaded with 5 µM CM-H2DCFDA in M199 without phenol red for 20 min. The dye excess was washed with M199 without phenol red and immediately after, cells were treated acutely with different concentrations of the test compounds in M199 without phenol red. To generate radicals, 100 µM H2O2 or 1 mM KO2 were injected to the compound-treated cells and CM-DCF fluorescence was measured every 2 min for 70 cycles on a scanning microplate reader (BMG FLUOstar Omega; Ex. 480 nm, Em. 520 nm). The area under the generated curves was calculated using the Origin 6.1 software (OriginLab).

[4] = test system: primary human skin fibroblasts; experiment: Cellular superoxide detection by HEt oxidation; format: cell-based; details: 24 h compound
Procedure: The cells were seeded at a density of 3 × 10^3 cells/well into 96-wells black plates. After 24 h, the cells were incubated with different amounts of KH176(m) for 24 h. For the cellular superoxide measurements cells were then washed with M199 without phenol red and incubated with HEt (#D11347, ThermoFisher) in this same medium for 10 minutes. […] Total cellular fluorescence per well was normalized on the incubation with the probe but without compound (vehicle set as 100%). Experiments were performed at least three times with 3 wells per experiment.

[5] = test system: primary human skin fibroblasts; experiment: CumOOH induced lipid peroxidation (bodipy 581/591 C11); format: cell-based; details: 30 µM cumOOH; for IC50: bodipy 581/591 C11
Procedure: The cells were seeded at a density of 3 × 10^3 cells/well into 96-wells black plates. After 24 h, the cells were coincubated with 500 nM bodipy 581/591 C11 (#D3861, Thermo Fisher) and different amounts of KH compound in M199 without phenol red. This medium was used in all subsequent washes and incubations. After 30 min. incubation the cells were washed twice and subsequently incubated with 30 μM cumene hydroperoxide (cumOOH). For background subtractions cells with the dye but without cumOOH were used. After 30 minutes incubation and two washes oxidized bodipy 581/591 C11 was quantified on an automated bioimager (BD Pathway 855), by using a 20x objective and Ex. 488/10 nm, Em. FURA/FITC. Total cellular fluorescence per well was normalized on the number of cellular pixels/well and normalized on the incubation with probe and cumOOH but without compound (vehicle set as 100%). Experiments were performed at least three times with 3 wells per experiment.

P4 cell line [6] = experiment: GSH measurements (GSH-Glo) under BSO; format: cell-based, human; details: increasing BSO 24 h
Procedure: Cells were seeded at a density of 4 × 10^3 cells/well into 96-wells white plates (#655098, Greiner Bio-one). After 24 h the cells were treated with semi-logarithmic dilutions of BSO up to a concentration of 100 µM alone or in co-incubation with a fixed amount of the test compound. 24 h after the treatment, GSH levels were measured with the GSH-Glo™ Glutathione Assay (# V6911, Promega) according to the manufacturer instructions. Luminescence was measured on a scanning microplate reader (BMG FLUOstar Omega).

[7] = Single dose pharmacokinetics and bioavailability study; format: in vivo, male C57BL/6 mice; details: mouse
Procedure: Pharmacokinetics and toxicokinetics measurements were performed by the commercial Contract Research Organizations Sai Life Sciences and WuXi AppTec, respectively, according to their standard protocols and in accordance with relevant guidelines and regulations. C57 BL/6 mice, Sprague Dawley rats, and Beagle dogs were studied.

[8] = male, C57BL/6, iv, KH176 2 mg/kg i.v., plasma
[9] = male, C57BL/6, po, KH176 10 mg/kg p.o., plasma

SMILES: CC1=C(C)C(=O)C(CC[C@](C)(O)C(=O)N[C@@H]2CCCNC2)=C(C)C1=O [KH176m]
IC50 (P4 cell line [1]): 250 nM and 255 nM | EC50 (P4 cell line [2]): 38 nM and 38.7 nM | Viability of patient cells under BSO (P4 cell line [2]; 1 µM compound): fully protected | Reduction of H2O2-induced radicals and O2.- (CM-H2DCFDA oxidation) (P4 cell line [3]): able to reduce the levels of both radicals | EC50 ([4]; basal, read-out: EC50 decrease of basal cellular superoxide levels (HEt)): 1700 nM | Potency (IC50) of KH176m relative to KH176, lipid peroxidation [5]: about 1000 fold | IC50 [5]: 71 nM | GSH level under BSO (P4 cell line [6]; 1 µM compound): remained unaffected | Brain to Plasma ratio, range (1–8 hours) ([7]; KH176 2 mg/kg i.v.): b.d. | Heart to Plasma ratio, range (1–8 hours) ([7]; KH176 2 mg/kg i.v.): 6.1–11.6 | Liver to Plasma ratio, range (1–8 hours) ([7]; KH176 2 mg/kg i.v.): 29.0–57.1 | Skeletal muscle to Plasma ratio, range (1–8 hours) ([7]; KH176 2 mg/kg i.v.): 8.2–20.5 | AUCINF ([7]; KH176 2 mg/kg i.v., plasma): 146.9 ng·h/mL | AUClast ([7]; KH176 2 mg/kg i.v., plasma): 140.0 ng·h/mL | T1/2 ([7]; KH176 2 mg/kg i.v., plasma): 30 min | C0 (i.v.) ([7]; KH176 2 mg/kg i.v., plasma, back extrapolated): 359.3 ng/mL | Brain to Plasma ratio, range (1–8 hours) ([7]; KH176 10 mg/kg p.o.): 0.1–19.6 | Heart to Plasma ratio, range (1–8 hours) ([7]; KH176 10 mg/kg p.o.): 2.1–14.6 | Liver to Plasma ratio, range (1–8 hours) ([7]; KH176 10 mg/kg p.o.): 12.8–94.1 | AUCINF ([7]; KH176 10 mg/kg p.o., plasma): 1260.8 ng·h/mL | AUClast ([7]; KH176 10 mg/kg p.o., plasma): 1225.2 ng·h/mL | Cmax (p.o.) ([7]; KH176 10 mg/kg p.o., plasma): 1061.8 ng/mL | Tmax ([7]; KH176 10 mg/kg p.o., plasma): 15 min | Skeletal muscle to Plasma ratio, range at 1 hour ([7]; KH176 10 mg/kg p.o., no concentrations detected at 8 hours): 4.4–33.8^d

IC50 (P4 cell line [1]; Homo sapiens): 22500 nM | Kp ([7]; male, C57BL/6, brain, iv, KH176 2 mg/kg i.v., read-out: Brain to Plasma ratio, range (1–8 hours)): 1 to 25 | Kp ([7]; male, C57BL/6, brain, po, KH176 10 mg/kg p.o., read-out: Brain to Plasma ratio, range (1–8 hours)): 0.4 to 0.8 | Kp ([7]; male, C57BL/6, heart, iv, KH176 2 mg/kg i.v., read-out: Heart to Plasma ratio, range (1–8 hours)): 4.3 to 28.3 | Kp ([7]; male, C57BL/6, heart, po, KH176 10 mg/kg p.o., read-out: Heart to Plasma ratio, range (1–8 hours)): 2.4 to 5.7 | AUC(0-inf) [7, 8]: 191 ng·h/mL | AUC(0-t) [7, 8]: 181 ng·h/mL | clearance [7, 8]: 175 mL/min/kg | half-life [7, 8]: 84 min | C0 ([7]; male, C57BL/6, iv, KH176 2 mg/kg i.v., plasma, back extrapolated): 543 ng/mL | Kp ([7]; male, C57BL/6, liver, iv, KH176 2 mg/kg i.v., read-out: Liver to Plasma ratio, range (1–8 hours)): 10.5 to 29.3 | Kp ([7]; male, C57BL/6, liver, po, KH176 10 mg/kg p.o., read-out: Liver to Plasma ratio, range (1–8 hours)): 5.7 to 12.1 | Vd ([7]; male, C57BL/6, plasma, iv, KH176 2 mg/kg i.v., read-out: Vss): 9.5 L/kg | bioavailability ([7]; male, C57BL/6, plasma, oral, 10 mg/kg p.o. vs 2 mg/kg i.v., from AUClast, read-out: F (oral bioavailability)): 68% | AUC(0-inf) [7, 9]: 624 ng·h/mL | AUC(0-t) [7, 9]: 618 ng·h/mL | Cmax [7, 9]: 414 ng/mL | Tmax ([7]; male, C57BL/6, po, KH176 10 mg/kg p.o., plasma, read-out: Tmax): 15 min | Kp ([7]; male, C57BL/6, skeletal muscle, iv, KH176 2 mg/kg i.v., read-out: Skeletal muscle to Plasma ratio, range (1–8 hours)): 8.7 to 20.1 | Kp ([7]; male, C57BL/6, skeletal muscle, po, KH176 10 mg/kg p.o., read-out: Skeletal muscle to Plasma ratio, range (1–8 hours)): 0.8 to 5.2
SMILES: Cc1c(C)c2c(c(C)c1O)CC[C@@](C)(C(=O)N[C@@H]1CCCNC1)O2.Cl [KH176, (S)-6-hydroxy-2,5,7,8-tetramethyl-N-((R)-piperidin-3-yl)chroman-2-carboxamide hydrochloride]
EC50 (P4 cell line [2]; Homo sapiens): 269 nM | EC50 (P4 cell line [2]): 270 nM | Viability of patient cells under BSO (P4 cell line [2]; 3 µM compound): fully protected | Reduction of H2O2-induced radicals and O2.- (CM-H2DCFDA oxidation) (P4 cell line [3]): able to reduce the levels of both radicals | Effect on basal cellular superoxide levels (HEt) [4]: no effect | IC50 ([5]; Homo sapiens, Skin fibroblast): 64000 nM | GSH level under BSO (P4 cell line [6]; 3 µM compound): remained unaffected
